Like-named read-outs stand apart in the source and are kept apart here.
Legend:
Leukemia L1210 [1] = test: Activity against Leukemia L1210, intraperitoneal, increase in life span of mice; type: in vivo, female mice (BDF1 family); conditions: for Survivors after 60 days / Max. ILS % / Therapeutic ratio TR: ip; for Survivors after 60 days: 6-membered group; for Max. ILS %: 60-day observation, versus control; for Therapeutic ratio TR: O.D./ILS30; for ED (maximum ILS) / ED30: Mus musculus, L1210, ip; for ED (maximum ILS): read-out: O.D. (optimum dosage); for ED30: read-out: ILS30
Procedure, shortened: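 L1210 cells (1×10^5) into abdominal cavity of female BDF1 mice, 20–23 g, n=6/group. Dosing 24 h post-implant, ip or po, qd ×5. 60-day observation; ILS% = mean survival vs untreated control; T.R. = O.D./ILS 30.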

[2] = Acute toxicity (LD50, Behrens-Karber method); type: in vivo, ICR mice; conditions: ip, mortality during 30 days; for LD50 at 720 h: mouse, in vivo
Procedure: Test compounds, dissolved or suspended in 0.5% aqueous CMC, were each intraperitoneally administered to ICR mice in a dose of 0.1 ml per 10 g body weight. LD50 (mg/kg) value of each test compound was calculated from the mortality of mice during 30 days by the Behrens-Karber method.

Leukemia L1210 [3] = test: Activity against Leukemia L1210, oral, increase in life span of mice; type: in vivo, female mice (BDF1 family); conditions: for Survivors after 60 days / Max. ILS % / Therapeutic ratio TR: oral; for Survivors after 60 days: 6-membered group; for Max. ILS %: 60-day observation, versus control; for Therapeutic ratio TR: O.D./ILS30; for ED (maximum ILS) / ED30: Mus musculus, L1210; for ED (maximum ILS): read-out: O.D. (optimum dosage); for ED30: read-out: ILS30
Procedure: Tests were conducted in accordance with the method for measuring antitumor activity of National Cancer Center Tokyo (A, Hoshi et al, Farumashia 9 464 (1973)). Test compounds were each intraperitoneally (referred to as ip) or orally (referred to as op) administered once a day for 5 successive days to a 6-membered group of femal mice (BDF1 family, each weighing 20 to 23 g) 24 hours after 1×10^5 cells of Leukemia L1210 have been implantated into the abdominal cavities of the mice, and the effect was evaluated by comparing the survival days of treated groups with those of an untreated group of mice (control group) in 60-day observation. An increase percentage of life span (ILS%) was calculated from said average survival days compared with those of the control group. Further, therapeutic ratio (O.D./ILD30, referred to as T.R.) of each tested compound was calculated from the daily dosage of the compound necessary to increase said average survival days by 30% as compared with the control group (this dosage is referred to as ILS 30) and the daily dosage giving a maximum increase of life span to mice implantated with L1210 cells, namely an optimum dosage (referred to as O.D.). The results of five successive days intraperitoneal administrations of test compounds were shown in Tables I to III, and those of five successive oral administrations in Table IV.

Ehrlich acites carcinoma = test: Growth-inhibiting effect against Ehrlich acites carcinoma; type: in vivo, male mice; conditions: Mus musculus, Ehrlich, 120 h, 5 days; for response vs control in vivo at 25 mg/kg: 25 mg/kg/day ip; for response vs control in vivo at 100 mg/kg: 100 mg/kg/day ip
Procedure: Ehrlich acites carcinoma (1×10^7 cells) was implantated into the abdominal cavities of a 6-membered group of male mice. Test compounds (solutions or suspensions in 1% Nikohl HCO-60) were each intraperioneally administered once a day 5 successive days to the mice 24 hrs. after the implantation. Total packed cell volumes [TPCV, namely, total packed volumes of Acites carcinoma] were determined 7 days after the implantation to calculate growth ratio of tumor [T/C%; T: packed volume of Acites carcinoma in treated groups, C: packed volume of Acites carcinoma in an untreated group]. Acitivity is represented by - when T/C% is 100-66, by + when T/C% 65-41, by ++ when T/C% 40-11, and by +++ when T/C% 10-0.

[4] = ip once a day for 5 successive days, daily dosage giving maximum increase of life span
[5] = ip once a day for 5 successive days, daily dosage increasing average survival days by 30%
[6] = oral once a day for 5 successive days, daily dosage giving maximum increase of life span
[7] = oral once a day for 5 successive days, daily dosage increasing average survival days by 30%

Row | Molecule | O.D. (optimum dosage) (Leukemia L1210 [1]; [4]) [mg/kg] | ILS30 (Leukemia L1210 [1]; [5]) [mg/kg] | Survivors after 60 days (Leukemia L1210 [1]) | Max. ILS % (Leukemia L1210 [1]) [%] | Therapeutic ratio TR (Leukemia L1210 [1]) | LD50 [2] [mg/kg] | O.D. (optimum dosage) (Leukemia L1210 [3]; [6]) [mg/kg] | ILS30 (Leukemia L1210 [3]; [7]) [mg/kg] | Survivors after 60 days (Leukemia L1210 [3]) | Max. ILS % (Leukemia L1210 [3]) [%] | Therapeutic ratio TR (Leukemia L1210 [3]) | ED (maximum ILS) (Leukemia L1210 [1]; [4]) [mg/kg] | ED30 (Leukemia L1210 [1]; [5]) [mg/kg] | LD50 at 720 h [2] [mg/kg] | ED (maximum ILS) (Leukemia L1210 [3]; [6]) [mg/kg] | ED30 (Leukemia L1210 [3]; [7]) [mg/kg] | response vs control in vivo at 25 mg/kg (Ehrlich acites carcinoma; read-out: Activity) [%] | response vs control in vivo at 25 mg/kg (Ehrlich acites carcinoma; read-out: T/C %) [%] | response vs control in vivo at 100 mg/kg (Ehrlich acites carcinoma; read-out: Activity) [%] | response vs control in vivo at 100 mg/kg (Ehrlich acites carcinoma; read-out: T/C %) [%]
1 | 3-tert-butyl-3-(1-methoxy-2-methoxyethyl α-D-glucopyranose-6-yl)-1-(2-chloroethyl)-1-nitrosourea [Compound 195] | 160 | 2.89 | 6/6 | > 700 | 55.4 | 540 | 200 | 8.51 | 5/6 | > 620 | 23.5 | – | – | – | – | – | – | – | – | –
2 | COC(C)CN(C[C@H]1O[C@H](OC(C)C)[C@H](O)[C@@H](O)[C@@H]1O)C(=O)N(CCCl)N=O (stereo partly drawn) [Compound 2, 3-(2-methoxy-n-propyl)-3-(isopropyl α-D-glucopyranose-6-yl)-1-(2-chloroethyl)-1-nitrosourea] | – | – | 6/6 | > 700 | 60.9 | – | – | – | 6/6 | > 700 | 24.5 | 140 | 2.3 | 420 | 180 | 7.35 | – | – | – | –
3 | CCOCCN(C(=O)N(CCCl)N=O)C1C(OC2CCCCC2)OC(CO)C(O)C1O [Compound 64, 3-(2-ethoxyethyl)-3-(cyclohexyl α-D-glucopyranose-2-yl)-1-(2-chloroethyl)-1-nitrosourea] | – | – | 4/6 | > 450 | 42.0 | – | – | – | 4/6 | > 460 | 18.2 | 200 | 4.76 | 650 | 240 | 13.2 | – | – | – | –
4 | CCCCOC1OC(CO)C(O)C(N(CC(C)OC)C(=O)N(CCCl)N=O)C1O [Compound 83, 3-(2-methoxy-n-propyl)-3-(n-butyl α-D-glucopyranose-3-yl)-1-(2-chloroethyl)-1-nitrosourea] | – | – | 4/6 | > 425 | 39.8 | – | – | – | 3/6 | > 360 | 14.3 | 200 | 5.03 | 665 | 240 | 16.8 | – | – | – | –
5 | COCCN(C(=O)N(CCCl)N=O)C1C(O)C(CO)OC(OC2CCCCC2)C1O [Compound 89, 3-(2-methoxyethyl)-3-(cyclohexyl α-D-glucopyranose-3-yl)-1-(2-chloroethyl)-1-nitrosourea] | – | – | 6/6 | > 700 | 63.9 | – | – | – | 4/6 | > 450 | 16.8 | 170 | 2.66 | 690 | 210 | 12.5 | – | – | – | –
6 | COCC(C)N(C(=O)N(CCCl)N=O)[C@H]1[C@@H](OCC(C)C)O[C@H](CO)[C@H](O)[C@@H]1O (stereo partly drawn) [Compound 124, 3-(1-methyl-2-methoxyethyl)-3-(isobutyl α-D-galactopyranose-2-yl)-1-(2-chloroethyl)-1-nitrosourea] | – | – | 3/6 | > 360 | 39.6 | – | – | – | – | – | – | 210 | 5.3 | 745 | – | – | 0 to 10 | 0 | 0 to 10 | 0
7 | COCCCN(C[C@H]1O[C@H](OCC(C)C)[C@@H](O)[C@@H](O)[C@H]1O)C(=O)N(CCCl)N=O [Compound 146, 3-(3-methoxy-n-propyl)-3-(isobutyl α-D-talopyranose-6-yl)-1-(2-chloroethyl)-1-nitrosourea] | – | – | 5/6 | > 620 | 56.4 | – | – | – | – | – | – | 180 | 3.19 | 595 | – | – | 0 to 10 | 0 | 0 to 10 | 0
8 | COCCCO[C@H]1O[C@H](CN(C(=O)N(CCCl)N=O)C(C)(C)C)[C@@H](O)[C@H](O)[C@H]1O [Compound 179, 3-tert-butyl-3-(3-methoxy-n-propyl α-D-glucopyranose-6-yl)-1-(2-chloroethyl)-1-nitrosourea] | – | – | 6/6 | > 700 | 64.4 | – | – | – | – | – | – | 180 | 2.79 | 560 | – | – | 0 to 10 | 0 | 0 to 10 | 0
9 | CC(C)(C)CN(C[C@H]1O[C@H](OCC2CCCO2)[C@H](O)[C@@H](O)[C@@H]1O)C(=O)N(CCCl)N=O (stereo partly drawn) [Compound 188, 3-neopentyl-3-(tetrahydrofurfuryl α-D-glucopyranose-6-yl)-1-(2-chloroethyl)-1-nitrosourea] | – | – | 6/6 | > 700 | 62.5 | – | – | – | – | – | – | 170 | 2.72 | 550 | – | – | 0 to 10 | 0 | 0 to 10 | 0
10 | CC(C)(C)N(C[C@H]1O[C@H](OCC2CCCO2)[C@H](O)[C@@H](O)[C@@H]1O)C(=O)N(CCCl)N=O (stereo partly drawn) [Compound 193, 3-tert-butyl-3-(tetrahydrofurfuryl α-D-glucopyranose-6-yl)-1-(2-chloroethyl)-1-nitrosourea] | – | – | 6/6 | > 700 | 63.4 | – | – | – | – | – | – | 160 | 2.52 | 550 | – | – | 0 to 10 | 0 | 0 to 10 | 0
